The text below walks through data of patent US20110082130A1 (LIGAND PHARMACEUTICALS, INC., priority 2006, published 2011).

Structures are written as SMILES.

One may read the Ki as the dissociation constant of the complex between target and ligand, obtained from inhibition or displacement.

In one assay the target is T1, chimeric human H3 receptor (Homo sapiens, UniProt Q9Y5N1).
T1 construct: made in house; host or cells: Sf9 insect cells (baculovirus); P2 membrane preparation
T1 sequence (Q9Y5N1 with tags, fused parts or gaps): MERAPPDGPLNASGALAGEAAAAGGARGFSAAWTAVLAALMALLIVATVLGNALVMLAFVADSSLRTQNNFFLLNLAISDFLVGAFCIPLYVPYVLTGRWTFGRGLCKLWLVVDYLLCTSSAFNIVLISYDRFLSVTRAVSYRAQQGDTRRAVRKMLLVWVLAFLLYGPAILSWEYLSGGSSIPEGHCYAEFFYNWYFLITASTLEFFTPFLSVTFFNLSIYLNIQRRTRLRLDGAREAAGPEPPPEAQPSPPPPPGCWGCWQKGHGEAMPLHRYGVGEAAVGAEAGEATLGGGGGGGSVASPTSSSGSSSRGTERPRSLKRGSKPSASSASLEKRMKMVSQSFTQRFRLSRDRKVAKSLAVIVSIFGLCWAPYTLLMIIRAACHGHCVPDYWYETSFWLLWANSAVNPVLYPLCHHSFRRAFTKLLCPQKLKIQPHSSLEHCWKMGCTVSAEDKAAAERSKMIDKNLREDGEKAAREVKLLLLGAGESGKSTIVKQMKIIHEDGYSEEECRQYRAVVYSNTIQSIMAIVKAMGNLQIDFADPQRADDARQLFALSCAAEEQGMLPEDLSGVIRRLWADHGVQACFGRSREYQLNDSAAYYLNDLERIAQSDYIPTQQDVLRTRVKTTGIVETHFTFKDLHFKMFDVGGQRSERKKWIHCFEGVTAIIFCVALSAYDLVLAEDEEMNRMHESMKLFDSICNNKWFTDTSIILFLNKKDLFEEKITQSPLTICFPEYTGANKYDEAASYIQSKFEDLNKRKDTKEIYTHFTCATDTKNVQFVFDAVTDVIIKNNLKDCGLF
The experiment in a line: Chimeric human H3 receptor GTP binding assay (agonist-stimulated GTP-gamma35S binding, Example 7). The class given is biochemical. The conditions noted are these: Table I; P2 membranes of Sf9 cells, 1 μM histamine as agonist, Ki from IC50 by Cheng-Prusoff. The gist of the method:
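Sf9 membranes co-expressing chimeric human H3 receptor and heterotrimeric G-protein, 35 μg/tube, in pH 7.4 Tris buffer with 10 μM GDP. Test compounds (10^−10–10^−6 M) competed against 1 μM histamine, […] GTP-gamma35S, 60 min at room temperature. Filter-bound radioactivity counted; IC50 converted to Ki by Cheng-Prusoff. Agonism/inverse agonism tested without histamine (EC50).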
Background: Binding of GTPγS marks nucleotide exchange on a G protein.
`CC(=O)c1ccc(-c2ccc3c(c2)CCN(CC(=O)N2CCN(C4CCC4)CC2)C3)cc1` [Compound 67, 1-(4-{2-[2-(4-cyclobutylpiperazin-1-yl)-2-oxoethyl]-1,2,3,4-tetrahydroisoquinolin-6-yl}phenyl)ethanone]: the Ki is under 1000 nM.

The assay is the same for the next values; noted with them: Table II "Ki", symbol *; assay of Example 7.
Turning to `O=C(CN1CCc2nc(NC3CCCCC3)ccc2C1)N1CCN(C2CCC2)CC1` [Compound 658, 6-[2-(4-cyclobutylpiperazin-1-yl)-2-oxoethyl]-N-cyclohexyl-5,6,7,8-tetrahydro-1,6-naphthyridin-2-amine], the Ki was under 1000 nM.

With `CO[C@H]1CCN(c2ccc3c(n2)CCN(CC(=O)N2CCN(C4CCC4)CC2)C3)C1` [Compound 670, 6-[2-(4-cyclobutylpiperazin-1-yl)-2-oxoethyl]-2-[(3S)-3-methoxypyrrolidin-1-yl]-5,6,7,8-tetrahydro-1,6-naphthyridine], the Ki is under 1000 nM. For `CC1CCCC1N1CCN(C(=O)CN2CCc3cc(-c4cncnc4)ccc3C2)CC1` (centres unmarked) [Compound 613, 2-{2-[4-(2-methylcyclopentyl)piperazin-1-yl]-2-oxoethyl}-6-pyrimidin-5-yl-1,2,3,4-tetrahydroisoquinoline], the Ki is under 1000 nM. On to `CC(C)c1ccc(-c2ccc3c(c2)CCN(CC(=O)N2CCN(C4CCC4)CC2)C3)cn1` [Compound 649, 2-[2-(4-cyclobutylpiperazin-1-yl)-2-oxoethyl]-6-(6-isopropylpyridin-3-yl)-1,2,3,4-tetrahydroisoquinoline], for which the Ki is under 1000 nM. As for `COc1ccc(-c2ccc3c(c2)CCN(CC(=O)N2CCN(C(C)C)CC2)C3)cc1OC` [Compound 527, 6-(3,4-dimethoxyphenyl)-2-[2-(4-isopropylpiperazin-1-yl)-2-oxoethyl]-1,2,3,4-tetrahydroisoquinoline], the Ki was under 1000 nM.

The assay is the same for the next values; noted with them: Table II; "*" = Ki in assay of Example 7 less than 1 micromolar.
Regarding `Cc1ccc(-c2ccc3c(c2)CCN(CC(=O)N2CCN(C4CCC4)CC2)C3)nn1` [Compound 166, 2-[2-(4-cyclobutylpiperazin-1-yl)-2-oxoethyl]-6-(6-methylpyridazin-3-yl)-1,2,3,4-tetrahydroisoquinoline], the Ki is under 1000 nM. Take `CC1(C)CN(CC(=O)N2CCN(C3CCC3)CC2)Cc2cnc(N3CCOCC3)nc21` [Compound 239, 6-[2-(4-cyclobutylpiperazin-1-yl)-2-oxoethyl]-8,8-dimethyl-2-morpholin-4-yl-5,6,7,8-tetrahydropyrido[4,3-d]pyrimidine]: the Ki is under 1000 nM. Same read-out and setting: the result for `O=C(CN1CCc2nn(-c3cncc(Cl)n3)cc2C1)N1CCN(C2CCC2)CC1` [Compound 267, 2-(6-chloropyrazin-2-yl)-5-[2-(4-cyclobutylpiperazin-1-yl)-2-oxoethyl]-4,5,6,7-tetrahydro-2H-pyrazolo[4,3-c]pyridine] reads under 1000 nM; that for `CC(=O)c1ccc2c(c1)CCN(CC(=O)N1CCN3CCCCC3C1)C2` (centres unmarked) [Compound 154, 1-{2-[2-(octahydro-2H-pyrido[1,2-a]pyrazin-2-yl)-2-oxoethyl]-1,2,3,4-tetrahydroisoquinolin-6-yl}ethanone], under 1000 nM. Consider `CC1CCC[C@H]2CN(C(=O)CN3CCc4cc(-n5ccc(C(F)(F)F)n5)ccc4C3)CCN12` (stereo in doubt) [Compound 158, 6-methyl-2-({6-[3-(trifluoromethyl)-1H-pyrazol-1-yl]-3,4-dihydroisoquinolin-2(1H)-yl}acetyl)octahydro-2H-pyrido[1,2-a]pyrazine], for which the Ki was under 1000 nM. As to `CS(=O)(=O)c1cccc(-c2nc3c(s2)CN(CC(=O)N2CCN(C4CCC4)CC2)CC3)c1` [Compound 99, 5-[2-(4-cyclobutylpiperazin-1-yl)-2-oxoethyl]-2-[3-(methylsulfonyl)phenyl]-4,5,6,7-tetrahydro[1,3]thiazolo [5,4-c]pyridine], the Ki was under 1000 nM. Turning to `CC(C)N1CCN(C(=O)CN2CCc3cc(-c4cccnn4)ccc3C2)CC1` [Compound 164, 2-[2-(4-isopropylpiperazin-1-yl)-2-oxoethyl]-6-pyridazin-3-yl-1,2,3,4-tetrahydroisoquinoline], the Ki was under 1000 nM. Consider `CN(C)c1ncc2c(n1)CCN(CC(=O)N1CCN(C3CCC3)CC1)C2` [Compound 246, 6-[2-(4-cyclobutylpiperazin-1-yl)-2-oxoethyl]-N,N-dimethyl-5,6,7,8-tetrahydropyrido[4,3-d]pyrimidin-2-amine], for which the Ki was under 1000 nM. On to `CN(C)c1ccc(-n2cc3c(n2)CCN(CC(=O)N2CCN(C4CCC4)CC2)C3)nn1` [Compound 259, 6-{5-[2-(4-cyclobutylpiperazin-1-yl)-2-oxoethyl]-4,5,6,7-tetrahydro-2H-pyrazolo[4,3-c]pyridin-2-yl}-N,N-dimethylpyridazin-3-amine], for which the inhibition constant Ki was under 1000 nM. As for `COC(=O)c1ccc(-c2nc3c(s2)CN(CC(=O)N2CCN(C4CCC4)CC2)CC3)cc1` [Compound 100, methyl 4-{5-[2-(4-cyclobutylpiperazin-1-yl)-2-oxoethyl]-4,5,6,7-tetrahydro[1,3]thiazolo [5,4-c]pyridin-2-yl}benzoate], the Ki was under 1000 nM.

With `O=C(CN1CCc2cc(-c3cccnn3)ccc2C1)N1CCN(C2CCC2)CC1` [Compound 129, 2-[2-(4-cyclobutylpiperazin-1-yl)-2-oxoethyl]-6-pyridazin-3-yl-1,2,3,4-tetrahydroisoquinoline], the Ki is under 1000 nM.

The same assay, now with this note: Table II; assay of Example 7.
For the compound `N#Cc1cnc(-n2cc3c(n2)CCN(CC(=O)N2CCN(C4CCC4)CC2)C3)nc1` [Compound 686, 2-{5-[2-(4-cyclobutylpiperazin-1-yl)-2-oxoethyl]-4,5,6,7-tetrahydro-2H-pyrazolo[4,3-c]pyridin-2-yl}pyrimidine-5-carbonitrile], the Ki was under 1000 nM.

The same assay, now with this note: assay of Example 7; "*" in Ki of Table II.
Regarding `O=C(CN1CCc2nc(-c3ccc(Oc4ccccc4)cc3)sc2C1)N1CCN(C2CCC2)CC1` [Compound 318, 5-[2-(4-cyclobutylpiperazin-1-yl)-2-oxoethyl]-2-(4-phenoxyphenyl)-4,5,6,7-tetrahydro[1,3]thiazolo [5,4-c]pyridine], the Ki is under 1000 nM. Same read-out and setting: under `O=C(CN1CCc2nc(-c3cccc(OC(F)(F)F)c3)sc2C1)N1CCN(C2CCC2)CC1` [Compound 319, 5-[2-(4-cyclobutylpiperazin-1-yl)-2-oxoethyl]-2-[3-(trifluoromethoxy)phenyl]-4,5,6,7-tetrahydro[1,3]thiazolo [5,4-c]pyridine] stands under 1000 nM; under `Cc1cccc(-c2nc3c(s2)CN(CC(=O)N2CCN(C4CCC4)CC2)CC3)c1` [Compound 304, 5-[2-(4-cyclobutylpiperazin-1-yl)-2-oxoethyl]-2-(3-methylphenyl)-4,5,6,7-tetrahydro[1,3]thiazolo [5,4-c]pyridine], under 1000 nM. In the case of `COc1ccc(-c2nc3c(s2)CN(CC(=O)N2CCN(C4CCC4)CC2)CC3)cc1C` [Compound 333, 5-[2-(4-cyclobutylpiperazin-1-yl)-2-oxoethyl]-2-(4-methoxy-3-methylphenyl)-4,5,6,7-tetrahydro[1,3]thiazolo [5,4-c]pyridine], the Ki is under 1000 nM. The same measure, in the same setting: the result for `CC(C)n1cc(-c2ccc3c(c2)CCN(CC(=O)N2CCN(C4CCC4)CC2)C3)ccc1=O` [Compound 282, 5-{2-[2-(4-cyclobutylpiperazin-1-yl)-2-oxoethyl]-1,2,3,4-tetrahydroisoquinolin-6-yl}-1-isopropylpyridin-2(1H)-one] reads under 1000 nM.
